Experimental data from ChEMBL document CHEMBL3507680, “University of Dundee, Gates Library screen for HepG2 cell viability”.

Test: Human HepG2 cell viability assay in 384 well format
Assay type: toxicity, cell-based
Parameters: dose 125 nL, time 70.5 hour; cytotoxicity at 70.5 h: concentration not given beside the values
Conditions: HepG2 cells, read-out: Inhibition

Which cytotoxicity at 70.5 h does the source give for `COCCN(C)C(=O)Nc1ccn(-c2cccc(C(F)(F)F)c2)n1` here?
The cytotoxicity at 70.5 h was -2.62%.

With `O=C(O)c1cc(NS(=O)(=O)c2ccccc2F)ccc1N1CCSCC1` as the compound, how does the cytotoxicity at 70.5 h read?
The cytotoxicity at 70.5 h was -8.7%.

With `CC(=O)Cc1c(C)nn(-c2cncc(N)c2)c1C` as the compound, how does the cytotoxicity at 70.5 h read?
The cytotoxicity at 70.5 h was -1.56%.

With `CCCc1cc(NC(=O)c2ccc(Cl)c(N3CCNC3=O)c2)n[nH]1` as the compound, how does the cytotoxicity at 70.5 h read?
The cytotoxicity at 70.5 h was 11.9%.

For `O=C(CN1CCN(C(=O)c2sccc2C2CC2)CC1)NC1CC1`, which cytotoxicity at 70.5 h is on record?
The cytotoxicity at 70.5 h was 8.72%.

For `Cc1noc(C)c1CN(Cc1ccccc1)C(C)CN1CCOCC1` (stereo unspecified), which cytotoxicity at 70.5 h is on record?
Its cytotoxicity at 70.5 h is -9.44%.

With `COc1ccc(OCC(=O)NS(=O)(=O)c2cc(C)ccc2C)cc1` as the compound, how does the cytotoxicity at 70.5 h read?
Its cytotoxicity at 70.5 h is -6.75%.

Which cytotoxicity at 70.5 h does the source give for `CC(C)N(C)CC(=O)Nc1nccn1Cc1ccccc1Cl` here?
The cytotoxicity at 70.5 h was -2.07%.

Which cytotoxicity at 70.5 h does the source give for `O=C(c1ccncc1)N1CCCC(c2ncncc2-c2ccncc2)C1` (stereo unspecified) here?
Its cytotoxicity at 70.5 h is -4.43%.

Which cytotoxicity at 70.5 h does the source give for `O=C(CN1CCCC(Cn2cncn2)C1)NCc1ccco1` (stereo unspecified) here?
Its cytotoxicity at 70.5 h is -15.8%.

With `Cc1cccc(NC(=O)[C@@H]2CCCN2Cc2nnc(C(C)C)n2C)n1` as the compound, how does the cytotoxicity at 70.5 h read?
The cytotoxicity at 70.5 h was -1.83%.

With `Cc1cnn(CCNCc2ccccc2OCc2cccnc2)c1` as the compound, how does the cytotoxicity at 70.5 h read?
Its cytotoxicity at 70.5 h is -3.61%.

Which cytotoxicity at 70.5 h does the source give for `CC(C)N1CCO[C@@H]2CN(C(=O)Cc3cccs3)CC[C@@H]2C1` here?
The cytotoxicity at 70.5 h was -6.99%.

With `COc1cc(N2CCn3cc(CNc4ccccn4)nc3C2)ncn1` as the compound, how does the cytotoxicity at 70.5 h read?
The cytotoxicity at 70.5 h was 2.02%.

For `COC(=O)C(C)(C)NC(=O)c1scnc1Cl`, which cytotoxicity at 70.5 h is on record?
Its cytotoxicity at 70.5 h is 0.537%.

For `CN(C)S(=O)(=O)N1C[C@H]2CCC[C@@]2(COc2cccnc2)C1`, which cytotoxicity at 70.5 h is on record?
Its cytotoxicity at 70.5 h is -5.8%.

For `Cc1cc(C(=O)N2CCCC2c2nc(C)cc(O)n2)on1` (stereo unspecified), which cytotoxicity at 70.5 h is on record?
Its cytotoxicity at 70.5 h is -8.09%.

Which cytotoxicity at 70.5 h does the source give for `CN(Cc1ccco1)C(=O)CN1CCCC1Cn1cncn1` (stereo unspecified) here?
The cytotoxicity at 70.5 h was 3.18%.

With `CCCN1CCc2[nH]cnc2C12CCN(C(=O)Cn1ccnc1C)CC2` as the compound, how does the cytotoxicity at 70.5 h read?
The cytotoxicity at 70.5 h was -6.5%.

Which cytotoxicity at 70.5 h does the source give for `CN1CC(=O)N(c2ccsc2)CC12CCN(S(=O)(=O)c1ccccc1)C2` (stereo unspecified) here?
Its cytotoxicity at 70.5 h is -109%.

With `CC(CNS(N)(=O)=O)c1ccc(F)c(F)c1` (stereo unspecified) as the compound, how does the cytotoxicity at 70.5 h read?
Its cytotoxicity at 70.5 h is 3.38%.

Which cytotoxicity at 70.5 h does the source give for `CCCN1C(=O)[C@H]2CC[C@@H]1CN(S(=O)(=O)c1cccc(Cl)c1)C2` here?
The cytotoxicity at 70.5 h was -9.33%.

With `CC(=O)Nc1ccc(C(=O)N2CCOc3nc(C)ccc32)cc1` as the compound, how does the cytotoxicity at 70.5 h read?
Its cytotoxicity at 70.5 h is -0.0601%.

Which cytotoxicity at 70.5 h does the source give for `O=C(c1ccncc1)N1CCCC2(CCN(c3cccnc3)C2=O)C1` (stereo unspecified) here?
Its cytotoxicity at 70.5 h is 0.0433%.

Which cytotoxicity at 70.5 h does the source give for `N#CC1(C(=O)N2CCCN(Cc3cscn3)CC2)CCCCC1` here?
The cytotoxicity at 70.5 h was 0.606%.

For `COc1nc2ccccc2cc1CN1CCCC(CNC(C)=O)C1` (stereo unspecified), which cytotoxicity at 70.5 h is on record?
The cytotoxicity at 70.5 h was -4.14%.

For `CCCC(=O)NC1CCc2c(ccc(=O)n2Cc2csc(C)n2)C1` (stereo unspecified), which cytotoxicity at 70.5 h is on record?
The cytotoxicity at 70.5 h was -12.5%.

With `CCOC(=O)N1CCN(C(=O)c2cc(-c3ccc(C)cc3)on2)CC1` as the compound, how does the cytotoxicity at 70.5 h read?
Its cytotoxicity at 70.5 h is 5.24%.

Which cytotoxicity at 70.5 h does the source give for `CC(=O)C(C)CC(=O)N(Cc1cccc(C)c1)C(C)C` (stereo unspecified) here?
Its cytotoxicity at 70.5 h is -1.29%.

For `CN1CCCCc2c1nc1c(c2N)CCCC1`, which cytotoxicity at 70.5 h is on record?
Its cytotoxicity at 70.5 h is -5.71%.

For `CNc1nc(CNC(=O)Nc2cccc(CSC)c2)cs1`, which cytotoxicity at 70.5 h is on record?
Its cytotoxicity at 70.5 h is -3.79%.

With `O=C1NC[C@H]2CN(C3CCOCC3)CCN12` as the compound, how does the cytotoxicity at 70.5 h read?
Its cytotoxicity at 70.5 h is -4.38%.

With `CCc1nc(C2CCCN2C(=O)c2ccc(N3CCCC3)nn2)no1` (stereo unspecified) as the compound, how does the cytotoxicity at 70.5 h read?
The cytotoxicity at 70.5 h was -3.36%.

For `Cc1ccc(CN2CC[C@H]3C[C@H](C(=O)N4CCCO4)O[C@@H]3C2)o1`, which cytotoxicity at 70.5 h is on record?
Its cytotoxicity at 70.5 h is 1.31%.

With `Cc1ccc(C(C(=O)NCc2n[nH]c(N)n2)N(C)C)cc1` (stereo unspecified) as the compound, how does the cytotoxicity at 70.5 h read?
Its cytotoxicity at 70.5 h is -5.83%.

For `CC(C)N1CCC(c2ccnc3c(C(=O)N4CCOCC4)ncn23)CC1`, which cytotoxicity at 70.5 h is on record?
Its cytotoxicity at 70.5 h is -5.36%.

Which cytotoxicity at 70.5 h does the source give for `Cc1ccc(Oc2cc(CN)ccn2)cc1C` here?
Its cytotoxicity at 70.5 h is -22.3%.

With `NC(=O)c1csc(N2C[C@@H](CN3CCCCC3)[C@@H](CO)C2)n1` as the compound, how does the cytotoxicity at 70.5 h read?
The cytotoxicity at 70.5 h was -6.7%.

With `CC(C)NC(=O)NC[C@H]1C[C@@H]2CCN1C[C@@H]2CN(C)c1ccccc1` as the compound, how does the cytotoxicity at 70.5 h read?
The cytotoxicity at 70.5 h was -0.173%.

With `Cc1ccsc1C(=O)NCc1ccnc(N2CCN(C)CC2)c1` as the compound, how does the cytotoxicity at 70.5 h read?
Its cytotoxicity at 70.5 h is -8.63%.

For `O=C(C1SCCc2sccc21)N1CCN(CC(F)F)CC1` (stereo unspecified), which cytotoxicity at 70.5 h is on record?
The cytotoxicity at 70.5 h was -5.33%.

For `Cc1ccc(C(=O)Nc2c(C(=O)N(C)C)nn(C)c2C)cc1C`, which cytotoxicity at 70.5 h is on record?
The cytotoxicity at 70.5 h was -4.41%.

For `CN(C)C[C@@H]1CCC[C@@H]2CN(c3cccnc3)C[C@@H]21`, which cytotoxicity at 70.5 h is on record?
The cytotoxicity at 70.5 h was -1.5%.

For `O=C(c1nnn(-c2ccc(C(F)(F)F)cc2)n1)N1CC(O)C1`, which cytotoxicity at 70.5 h is on record?
Its cytotoxicity at 70.5 h is -8.07%.

With `Cc1ncsc1C(=O)NCCn1nc2ccccn2c1=O` as the compound, how does the cytotoxicity at 70.5 h read?
Its cytotoxicity at 70.5 h is -13.7%.

With `Cn1nc2c(cc1=O)CN(c1nc3ccccc3s1)CC2` as the compound, how does the cytotoxicity at 70.5 h read?
The cytotoxicity at 70.5 h was 4.78%.

With `OCC1(CC2CC2)CCCN(Cc2cnc(N3CCOCC3)nc2)C1` (stereo unspecified) as the compound, how does the cytotoxicity at 70.5 h read?
The cytotoxicity at 70.5 h was -5.42%.

Which cytotoxicity at 70.5 h does the source give for `O=C(CN1CCCC1)N1CCCC1c1nc(O)cc(-c2ccccn2)n1` (stereo unspecified) here?
The cytotoxicity at 70.5 h was 11.1%.

Which cytotoxicity at 70.5 h does the source give for `CCNC(=O)[C@@H]1C[C@@H](n2cc(CC3CCCCC3)nn2)CN1` here?
The cytotoxicity at 70.5 h was -9.79%.

With `Cc1ccc(CNC2(Cc3cc(-c4ccccc4)on3)COC2)o1` as the compound, how does the cytotoxicity at 70.5 h read?
The cytotoxicity at 70.5 h was -0.988%.

Which cytotoxicity at 70.5 h does the source give for `COc1ccc2c(c1)CCCN2C(=O)c1cccc(N(C)C)c1` here?
Its cytotoxicity at 70.5 h is 3.26%.

With `Cc1cccc(C2CCCN(C(=O)CN3C(=O)CCNC3=O)C2)c1` (stereo unspecified) as the compound, how does the cytotoxicity at 70.5 h read?
The cytotoxicity at 70.5 h was -13.9%.

Which cytotoxicity at 70.5 h does the source give for `CCOCc1ccccc1CNc1ccc2nncn2n1` here?
Its cytotoxicity at 70.5 h is -5.87%.

With `O=C([C@H]1CCCO1)N1CC[C@H](O)[C@@H]1Cc1cccnc1` as the compound, how does the cytotoxicity at 70.5 h read?
The cytotoxicity at 70.5 h was -4.15%.

For `CN(C)c1ncc(-c2ccc(F)cc2)c(C2CNCCO2)n1` (stereo unspecified), which cytotoxicity at 70.5 h is on record?
The cytotoxicity at 70.5 h was -2.95%.

With `Cc1ccc(CN2Cc3cnn(C)c3C(COCC3CC3)C2)o1` (stereo unspecified) as the compound, how does the cytotoxicity at 70.5 h read?
Its cytotoxicity at 70.5 h is 2.56%.
